Laboratory results published in PubChem BioAssay (NCI).
Values joined by “and” are separate entries in the source; they are usually repeats but may differ in a detail not shown here. Identical values can stand only once.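 Method: 48-hour compound exposure of cells in 96-well plates, five concentrations, linear interpolation of endpoints. GI50 = concentration required for 50% inhibition of growth. Definition used: TGI = concentration required for complete inhibition of growth.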

Assays:
Experiment in all cases: inhibition of tumour cell growth, NCI panel, 48 h
[1] = system: EKVX NSCLC
[2] = system: HCC-2998 colon
[3] = system: MCF7 breast
[4] = system: MOLT-4 leukemia
[5] = system: PC-3 prostate
[6] = system: SF-295 CNS
[7] = system: SN12C renal
[8] = system: UACC-257 melanoma
[9] = system: UO-31 renal
[10] = system: U251 CNS

`CC(C)(C)c1cc(C(=O)O)c2c(c1)C(=O)OC2(c1ccccc1)c1ccccc1C(=O)O` (stereo unspecified) was tested, and the TGI [1] was over 100 µM, the TGI [2] was over 100 µM and the GI50 [3] was over 100 µM. It also gave a TGI [3] of over 100 µM, a TGI [4] of over 100 µM and a GI50 [5] of over 100 µM. It also gave a TGI [5] of over 100 µM, a TGI [6] of over 100 µM and a TGI [7] of over 100 µM. It also gave a TGI [8] of over 100 µM and a TGI [9] of over 100 µM.

`N#Cc1c(NC(=O)c2ccccc2F)sc2c1CCCC2` showed a GI50 [1] of over 25 µM, a TGI [1] of over 25 µM and a GI50 [2] of 13.4 µM. For the same compound, the TGI [2] was over 25 µM, the GI50 [3] was over 19.5 µM and the TGI [3] was over 25 µM. It also gave a GI50 [4] of over 25 µM, a TGI [4] of over 25 µM and a GI50 [5] of over 25 µM. The TGI [5] was over 25 µM, the GI50 [6] was over 25 µM and the TGI [6] was over 25 µM. The GI50 [7] was over 25 µM, the TGI [7] was over 25 µM and the GI50 [10] was over 25 µM. The TGI [10] was over 25 µM, the GI50 [8] was over 25 µM and the TGI [8] was over 25 µM. The GI50 [9] was over 25 µM and the TGI [9] was over 25 µM.

In the case of `COc1ccc(-c2[nH]c3ccccc3c2/C=C(\C#N)S(=O)(=O)c2ccccc2)cc1`, the GI50 [1] is reported as 1.25 µM, the TGI [1] is reported as over 100 µM and the GI50 [2] is reported as 1.11 µM. The TGI [2] was 5.99 µM, the GI50 [3] was 0.398 µM and the TGI [3] was over 51.6 µM. It also gave a GI50 [4] of 0.666 µM, a TGI [4] of 8.39 µM and a GI50 [5] of 0.533 µM. The TGI [5] was over 68.8 µM, the GI50 [6] was 0.487 µM and the GI50 [7] was 1.34 µM. For the same compound, the TGI [7] was over 100 µM, the GI50 [10] was 0.462 µM and the TGI [10] was over 29.4 µM. It also gave a GI50 [8] of 10.7 µM, a TGI [8] of over 100 µM and a GI50 [9] of 1.88 µM.

In the case of `N#CCNC(=O)c1ccc(-c2ccnc(Nc3ccc(N4CCOCC4)cc3)n2)cc1`, the GI50 [1] is reported as over 10 µM, the TGI [1] is reported as over 10 µM and the GI50 [2] is reported as > 10 µM and 3.98 µM. The TGI [2] was > 10 µM and 47.4 µM, the GI50 [3] was 1.78 µM and 1.54 µM and the TGI [3] was > 10 µM and 21.4 µM. For the same compound, the GI50 [4] was 2.78 µM and 2.6 µM, the TGI [4] was over 100 µM and the GI50 [5] was 3.77 µM and 1.77 µM. For the same compound, the TGI [5] was > 10 µM and 38.8 µM, the GI50 [6] was 4.56 µM and 1.94 µM and the TGI [6] was > 10 µM and 16.6 µM. For the same compound, the GI50 [7] was 2.73 µM and 0.992 µM, the TGI [7] was over 100 µM and the GI50 [10] was 3.46 µM and 1.79 µM. The TGI [10] was > 10 µM and 34.8 µM, the GI50 [8] was > 10 µM and 4.39 µM and the TGI [8] was over 100 µM. The GI50 [9] was 1.1 µM and 0.36 µM and the TGI [9] was 4.19 µM and 3.4 µM.

`COC1=C(OC)[C@]2(OC)c3c(O)c(OC)c4c(c3O[C@@]23O[C@@H](c2ccccc2)CC=C3C1=O)[C@@H](OC)C[C@H](c1ccccc1)O4` was tested, and the GI50 [1] was 1.3 µM, the TGI [1] was 2.75 µM and the GI50 [2] was 1.4 µM. For the same compound, the TGI [2] was 3.32 µM, the GI50 [3] was 0.265 µM and the TGI [3] was 1.36 µM. It also gave a GI50 [4] of 0.0401 µM, a TGI [4] of 0.194 µM and a GI50 [5] of 0.706 µM. For the same compound, the TGI [5] was 1.84 µM, the GI50 [6] was 1.56 µM and the TGI [6] was 2.97 µM. For the same compound, the GI50 [7] was 0.317 µM, the TGI [7] was 1.03 µM and the GI50 [10] was 1.41 µM. The TGI [10] was 2.74 µM, the GI50 [8] was 0.814 µM and the TGI [8] was 2.17 µM. For the same compound, the GI50 [9] was 0.957 µM and the TGI [9] was 2.13 µM.

Work on `Clc1nc(Cl)c2ncn(CCOCCn3cnc4c(Cl)nc(Cl)nc43)c2n1` yielded a GI50 [1] of 1.31 µM, a TGI [1] of 2.77 µM and a GI50 [2] of 0.213 µM. It also gave a TGI [2] of 0.382 µM, a GI50 [3] of 0.192 µM and a TGI [3] of 0.455 µM. It also gave a GI50 [4] of 0.336 µM, a TGI [4] of over 100 µM and a GI50 [5] of 0.188 µM. For the same compound, the TGI [5] was 0.365 µM, the GI50 [6] was 1.33 µM and the TGI [6] was 2.83 µM. The GI50 [7] was 0.214 µM, the TGI [7] was 0.433 µM and the GI50 [10] was 0.174 µM. For the same compound, the TGI [10] was 0.313 µM, the GI50 [8] was 0.235 µM and the TGI [8] was 0.488 µM. For the same compound, the GI50 [9] was 0.633 µM and the TGI [9] was 1.25 µM.

Work on `S=C(NCc1ccc2c(c1)OCO2)N1CCN(c2ncnc3c2oc2ccccc23)CC1` yielded a GI50 [1] of 3.5 µM, a TGI [1] of over 100 µM and a GI50 [2] of over 100 µM. For the same compound, the TGI [2] was over 100 µM, the GI50 [3] was 4.83 µM and the TGI [3] was over 100 µM. It also gave a GI50 [4] of 3.95 µM, a TGI [4] of over 100 µM and a GI50 [5] of 6.88 µM. For the same compound, the TGI [5] was over 100 µM, the GI50 [6] was 5.38 µM and the TGI [6] was over 100 µM. For the same compound, the GI50 [7] was over 100 µM, the TGI [7] was over 100 µM and the GI50 [10] was 27.2 µM. For the same compound, the TGI [10] was over 100 µM, the GI50 [8] was 1.71 µM and the TGI [8] was over 33.7 µM. The GI50 [9] was over 21.7 µM and the TGI [9] was over 100 µM.

Work on `COc1c(CC=C(C)C)c(O)c(C(CC(C)C)c2c(O)c(CC=C(C)C)c(O)c(C(C)=O)c2O)c(O)c1C(C)=O` (stereo unspecified) yielded a TGI [1] of 11.4 µM, a TGI [2] of 1.69 µM and a TGI [3] of 4.84 µM. For the same compound, the TGI [4] was 2.48 µM, the TGI [5] was 10.3 µM and the TGI [6] was 2.28 µM. The TGI [7] was 6.84 µM, the TGI [10] was 11.2 µM and the TGI [8] was 5.11 µM. The TGI [9] was 11.1 µM.

`Cc1cc(O)c2c3c(ccc2c1)C(=O)c1c(O)cccc1C3=O` was tested, and the TGI [1] was over 100 µM, the TGI [2] was over 100 µM and the TGI [3] was over 100 µM. It also gave a TGI [4] of over 39.1 µM, a TGI [5] of over 100 µM and a TGI [6] of over 100 µM. The TGI [7] was over 100 µM, the TGI [10] was over 100 µM and the TGI [8] was over 100 µM. The TGI [9] was over 100 µM.

`c1ccc(CN2COc3c(ccc4c5c(ccc34)CN(Cc3ccccc3)CO5)C2)cc1` showed a TGI [1] of over 100 µM, a TGI [2] of over 100 µM and a TGI [3] of over 100 µM. For the same compound, the TGI [4] was over 100 µM, the TGI [5] was over 100 µM and the TGI [6] was over 100 µM. The TGI [7] was over 100 µM, the TGI [10] was over 100 µM and the TGI [8] was over 100 µM. It also gave a TGI [9] of over 100 µM.

In the case of `O=C(c1ccco1)c1c(C(F)(F)F)n([O-])c2cc(F)c(F)cc2[n+]1=O`, the GI50 [1] is reported as 0.57 µM, the TGI [1] is reported as 1.26 µM and the TGI [2] is reported as 0.0145 µM. It also gave a GI50 [3] of 0.108 µM, a TGI [3] of 2.62 µM and a GI50 [4] of 0.0867 µM. It also gave a TGI [4] of 0.411 µM, a GI50 [5] of 0.147 µM and a TGI [5] of 0.435 µM. It also gave a GI50 [6] of 0.737 µM, a TGI [6] of 2.17 µM and a GI50 [7] of 0.307 µM. For the same compound, the TGI [7] was 1.01 µM, the GI50 [10] was 0.153 µM and the TGI [10] was 0.291 µM. It also gave a GI50 [8] of 1.29 µM, a TGI [8] of 3.01 µM and a GI50 [9] of 0.546 µM. The TGI [9] was 1.03 µM.

`Nc1nc2ccccc2c2c1S(=O)(=O)c1ccc(Cl)cc1C2=O` was tested, and the GI50 [1] was 1.84 µM, the TGI [1] was over 50 µM and the GI50 [2] was 2.03 µM. It also gave a TGI [2] of 29.8 µM, a GI50 [3] of 1.49 µM and a TGI [3] of over 50 µM. For the same compound, the GI50 [4] was 1.42 µM, the TGI [4] was 8.86 µM and the GI50 [5] was 0.89 µM. For the same compound, the TGI [5] was over 50 µM, the GI50 [6] was 2.22 µM and the TGI [6] was over 50 µM. For the same compound, the GI50 [7] was 1.16 µM, the TGI [7] was 4.54 µM and the GI50 [10] was 1.79 µM. For the same compound, the TGI [10] was 18.3 µM, the GI50 [8] was 1.96 µM and the TGI [8] was over 50 µM. The GI50 [9] was 1.21 µM and the TGI [9] was 9.38 µM.

`N#C/C(=C\c1cc2ccc(N3CCC3)cc2oc1=O)C(=O)N(CC(=O)O)CC(=O)O` showed a GI50 [1] of over 100 µM, a TGI [1] of over 100 µM and a GI50 [2] of over 100 µM. The TGI [2] was over 100 µM, the GI50 [3] was over 100 µM and the TGI [3] was over 100 µM. The GI50 [4] was over 100 µM, the TGI [4] was over 100 µM and the GI50 [5] was over 100 µM. The TGI [5] was over 100 µM, the GI50 [6] was over 100 µM and the TGI [6] was over 100 µM. The GI50 [7] was over 100 µM, the TGI [7] was over 100 µM and the GI50 [10] was over 100 µM. It also gave a TGI [10] of over 100 µM, a GI50 [8] of over 100 µM and a TGI [8] of over 100 µM. The GI50 [9] was over 100 µM and the TGI [9] was over 100 µM.

With `COC1=C(OC)C(=O)C(CCCCCCCCCCO)=C(C)C1=O` the GI50 [1] was 5.89 µM, the TGI [1] was 21.8 µM and the GI50 [2] was 16.3 µM. For the same compound, the TGI [2] was 33.5 µM, the GI50 [3] was 1.96 µM and the TGI [3] was 4.45 µM. The GI50 [4] was 4.54 µM, the TGI [4] was 21.7 µM and the GI50 [5] was 3.76 µM. It also gave a TGI [5] of 15.6 µM, a GI50 [7] of 7.39 µM and a TGI [7] of 24.4 µM. The GI50 [10] was 3.03 µM, the TGI [10] was 12.5 µM and the GI50 [8] was 1.84 µM. For the same compound, the TGI [8] was 4.48 µM, the GI50 [9] was 12.7 µM and the TGI [9] was 26.6 µM.
